Laboratory results taken from PubChem BioAssay (NCI).
“And” between values parts separate entries of the source, which are not always exact repeats. Identical values can stand only once.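 Growth conditions: 96-well plates. Treatment: test compound, 48 hours, 5 concentrations. Analysis: linear interpolation between bracketing concentrations; unreached endpoints set to highest concentration. The concentration for 50% growth inhibition is given as GI50. TGI marks complete inhibition of growth.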

The molecules below were run on MDA-MB-468 breast (assay: inhibition of tumour cell growth, NCI panel, 48 h).

| Structure (SMILES) | GI50 | TGI |
| --- | --- | --- |
| CCN1C(=O)N(CC)C2C1N=C(SC)N2/N=C/C=C/c1ccccc1OC (stereo not given) | 0.256 µM | 0.729 µM |
| CCC(=O)Nc1nnc(Cc2ccc(OC)c(OC)c2)s1 | > 100 µM | > 100 µM |
| Fc1ccc(Nc2nc(Nc3ccc(-c4nc5ccccc5[nH]4)cc3)c3cn[nH]c3n2)cc1 | 1.91 µM | 3.74 µM |
| O=C1Cc2cc(CCN3CCNCC3)c(Cl)cc2N1 | 2.24 µM | 7.42 µM |
| CSc1nc2c(c(=O)n1C)C(c1ccccc1)C1=C(N2)/C(=C/c2ccccc2)CCC1 (stereo not given) | 2.84 µM | 29.7 µM |
| CCCCCCCCN=C(NCCCCCCCC)SCc1cccc2ccccc12 | 1.41 µM | 2.81 µM |
| COc1ccc(-c2[nH]ncc2Nc2cc(OC)c(OC)c(OC)c2)cc1 | 0.435 µM | 52.3 µM |
| COc1cnccc1Nc1nc(-c2nn(Cc3c(F)cc(OCCO)cc3F)c3ccccc23)ncc1OC | 2.26 µM | 10.6 µM |
| CCS(=O)(=O)c1ccc(OC)c(Nc2ncc(-c3cccc(F)c3)o2)c1 | > 25 µM | > 25 µM |
| O=C1NC(=NCCc2ccc(Br)cc2)S/C1=C\c1ccc2ncccc2c1 | > 16.5 µM | > 25 µM |
| CN(C)c1ccc2[nH]c3c(C(N)=O)cc(=O)c(=O)c=3oc2c1 | 2.02 µM | 5.52 µM |
| CCOC(=O)/C=C1/SC(=Nc2ccc(C#N)cc2)N(Cc2ccco2)C1=O | 2.97 µM | 14.2 µM |
| CN1CCN(c2ccc(NC3=CC(=O)c4ncncc4C3=O)cc2)CC1 | 0.189 µM | 0.416 µM |
| CCOCCOCCOCCOCCOCCOCCOCCOCCOCCO (tested in a mixture with another compound) | 0.372 µM | 2.18 µM |
| O=C1/C(=C/c2ccc([N+](=O)[O-])o2)Oc2ccc(Cl)cc21 | 1.55 µM | 3.45 µM |
| O=C(CI)Nc1ccc(Br)cc1 | 1.83 µM | 3.74 µM |
| COc1ccc([I+]c2ccc(OC)cc2)cc1 | 0.256 µM | 17.9 µM |
| C=C(C)C(=O)Nc1ccc(-c2c(-c3ccc(Oc4nccc(C)n4)c(F)c3)c3c(N)ncnc3n2C)cc1 | 1.83 µM | 6.83 µM |
| O=C1/C(=C/c2ccc(C(F)(F)F)cc2)COc2ccc(O)c(O)c21 | 1.53 µM | 2.99 µM |
| COc1cc(C2NC(=O)C(C#N)=C(Nc3cccc(C)c3)S2)ccc1O (stereo not given) | > 100 µM | > 100 µM |
| CC/C=C\C[C@H]1C/C=C2/C(=O)C(Cl)=C[C@@H]2C/C=C\CCCC(=O)O1 | 0.309 µM | 0.869 µM |
| CCc1c(C)c2cc(-n3c(-c4ccc(OC)cc4)csc3=N)c(O)c(C)c2oc1=O | 1.93 µM | 7.76 µM |
| Oc1[nH]c2ccccc2c1C=Nc1ccc(-n2cncn2)cc1 | > 20.7 µM | > 25 µM |

| Structure (SMILES) | GI50 | TGI |
| --- | --- | --- |
| C(=N\Nc1ccc2ccccc2n1)/c1ccccn1 | 0.313 µM | 2.46 µM |
| CC(C)(C)[Si](C)(C)OC1[C@@H](COC(=O)NC(=O)CCl)O[C@@H](n2cnc3c(N)ncnc32)[C@H]1O[Si](C)(C)C(C)(C)C (stereo not given in full) | 3.84 µM | 11.1 µM |
| COc1ccc(-c2c(-c3ccc(C#N)c(F)c3)nc(N3CCC(N)CC3)n(C)c2=O)cc1F | 7.91 µM | 23.2 µM |
| S=C(SSC(=S)N1CCCCC1)N1CCCCC1 | 16.9 µM | 69.8 µM |
| CC12O[C@H](C[C@@H](OC(=O)CCC(=O)O)[C@H]1O)n1c3ccccc3c3c4c(c5c6ccccc6n2c5c31)C(=O)NC4=O | 1.72 µM | 10.8 µM |
| O=C1C(Cl)=C(NCCCN(CCCNC2=C(Cl)C(=O)c3ccccc3C2=O)C2=C(Cl)C(=O)c3ccccc3C2=O)C(=O)c2ccccc21 | 1.21 µM | 2.87 µM |
| CNC(=O)c1cc(Oc2ccc(NC(=O)Nc3cc(C(C)(C)C)nn3-c3ccc4ncccc4c3)c(F)c2)ccn1 | 1.95 µM and 2.43 µM | 4.53 µM and 5.19 µM |
| Cc1cc(N(CCNc2ccnc3cc(Cl)ccc23)Cc2ccc3c(c2)OCO3)nc(N2CCCC2)n1 | 1.47 µM | 3.74 µM |
| C[C@]12CCC(=O)C[C@@H]1CC[C@@H]1[C@@H]2CC[C@]2(C)[C@@H](OC(=O)N(CCCl)N=O)CC[C@@H]12 | 1.06 µM | 4.72 µM |
| COc1ccc2c(c1)nnc1c3cccnc3[nH]c21 | 0.0667 µM and 0.0556 µM | 0.237 µM and 1.1 µM |
| COc1cc(-c2ccc[nH]2)[nH]c1/C=C1\N=C(C)C(CC(=O)OCC(C)(C)C)=C1C | 0.082 µM | 1.19 µM |
| CC(=O)c1c(C)c2cnc(Nc3ccc(N4CCNCC4)cn3)nc2n(C2CCCC2)c1=O | 3.54 µM | 15.7 µM |
| COc1ccc2nc3ccccc3c(NCCNCC(C)O)c2c1 (stereo not given) | 0.3 µM | 0.953 µM |
| COc1cc(C(=O)n2nc(N)c3c(C)cc(C)nc32)cc(OC)c1OC | 2.92 µM | > 100 µM |
| COc1cc2nc(-c3ccc(C(F)(F)F)cc3)cc(OCCCNCC3CCCO3)c2cc1OC (stereo not given) | 8.89 µM | 23.3 µM |
| Cc1c(C(N)=O)sc2nc(C)n(/N=c3\scc(-c4ccccc4)n3Cc3ccccc3)c(=O)c12 | 2.65 µM | > 100 µM |
| COC(=O)CC1=C(C)/C(=C/c2[nH]c(-c3ccc[nH]3)cc2OC)N=C1C | 0.162 µM | 1.76 µM |
| Cc1cc(N2CCOCC2)nc(NCc2cc(Nc3ccnc4cc(Cl)ccc34)ccc2F)n1 | 1.89 µM | 3.91 µM |
| CNc1cc(-c2cccc(OC(F)(F)F)c2)nc2ccc(N3CCCC3)cc12 | 2.11 µM and 1.83 µM | 3.87 µM and 3.49 µM |
| CC1=C[C@@H]2c3c(c(O)c(O)c4oc5cc(O)cc(O)c5c(=O)c34)[C@@H](c3cc(O)c(O)c4oc5cc(O)cc(O)c5c(=O)c34)[C@@H]2C(C)(C)C1 | 3.35 µM | 16.2 µM |
| COC(=O)c1cc(-c2ccc(S(C)(=O)=O)cc2)[nH]c1N/N=C/c1c(Cl)cccc1Cl | 4.27 µM | > 100 µM |
| COc1ccc2c(c1)-c1c(c3cc(OC)ccc3n(CCN(C)C)c1=O)C2=O | 1.75 µM | 9.19 µM |
